Earlier results on one compound are cited in patent US20080103124A1, “Cefdinir-containing pharmaceutical composition” (ASTELLAS PHARMA INC., priority 2006, published 2008).

Read-outs that look alike come from different tables or passages of the source.

For this data set the following is noted: human beings.

For `C=CC1=C(C(=O)O)N2C(=O)[C@@H](NC(=O)/C(=N\O)c3csc(N)n3)[C@H]2SC1` [cefdinir], the absolute bioavailability is, setting by setting: (following administration of a 300 mg capsule) 21%; (following administration of an oral suspension of 250 mg/5 mL) 25%.
